Reference: article PMC10824489 (Journal of medicinal chemistry, 2023)
“Also recorded” adds a separate entry of the source.

Legend:
RPE65 [1] = molecular target: RPE65 (Bos taurus, UniProt Q28175); assay: RPE65 activity assay in vitro; type: biochemical, bovine; settings: for inhibition of RPE65 in vitro: concentration range 0.1-50 μM
RPE65 [2] = molecular target: T1, RPE65 (Mus musculus, UniProt Q91ZQ5); settings: 10 mg/kg IP; for RPE65 inhibition in vivo (in words): BALB/cJ mice; for 11cRAL level in eye / RE level in eye: four hours of dark adaptation after light exposure, mean ± SD, n=3
T1 sequence (Q91ZQ5 1-533): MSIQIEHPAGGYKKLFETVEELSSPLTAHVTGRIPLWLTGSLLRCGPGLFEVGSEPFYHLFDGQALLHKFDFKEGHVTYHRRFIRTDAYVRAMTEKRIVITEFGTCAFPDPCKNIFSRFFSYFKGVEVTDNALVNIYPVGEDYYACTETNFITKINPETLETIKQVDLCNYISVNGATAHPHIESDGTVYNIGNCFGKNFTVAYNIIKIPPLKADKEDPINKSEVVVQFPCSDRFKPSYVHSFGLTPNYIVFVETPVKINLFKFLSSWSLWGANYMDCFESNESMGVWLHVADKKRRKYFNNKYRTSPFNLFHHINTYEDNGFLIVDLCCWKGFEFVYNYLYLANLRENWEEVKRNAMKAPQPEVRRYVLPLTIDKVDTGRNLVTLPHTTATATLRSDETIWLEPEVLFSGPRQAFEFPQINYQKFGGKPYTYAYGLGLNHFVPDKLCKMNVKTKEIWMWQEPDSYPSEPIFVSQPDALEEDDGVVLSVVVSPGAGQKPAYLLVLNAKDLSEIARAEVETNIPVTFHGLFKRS

VAP-1 = molecular target: T2, VAP-1 (Mus musculus, UniProt O70423); assay: VAP-1 oxidation assay in mouse aorta homogenates; settings: for Concentration of 16e in mouse aorta homogenates: substrate 16e 100 μM
T2 sequence (O70423 1-765): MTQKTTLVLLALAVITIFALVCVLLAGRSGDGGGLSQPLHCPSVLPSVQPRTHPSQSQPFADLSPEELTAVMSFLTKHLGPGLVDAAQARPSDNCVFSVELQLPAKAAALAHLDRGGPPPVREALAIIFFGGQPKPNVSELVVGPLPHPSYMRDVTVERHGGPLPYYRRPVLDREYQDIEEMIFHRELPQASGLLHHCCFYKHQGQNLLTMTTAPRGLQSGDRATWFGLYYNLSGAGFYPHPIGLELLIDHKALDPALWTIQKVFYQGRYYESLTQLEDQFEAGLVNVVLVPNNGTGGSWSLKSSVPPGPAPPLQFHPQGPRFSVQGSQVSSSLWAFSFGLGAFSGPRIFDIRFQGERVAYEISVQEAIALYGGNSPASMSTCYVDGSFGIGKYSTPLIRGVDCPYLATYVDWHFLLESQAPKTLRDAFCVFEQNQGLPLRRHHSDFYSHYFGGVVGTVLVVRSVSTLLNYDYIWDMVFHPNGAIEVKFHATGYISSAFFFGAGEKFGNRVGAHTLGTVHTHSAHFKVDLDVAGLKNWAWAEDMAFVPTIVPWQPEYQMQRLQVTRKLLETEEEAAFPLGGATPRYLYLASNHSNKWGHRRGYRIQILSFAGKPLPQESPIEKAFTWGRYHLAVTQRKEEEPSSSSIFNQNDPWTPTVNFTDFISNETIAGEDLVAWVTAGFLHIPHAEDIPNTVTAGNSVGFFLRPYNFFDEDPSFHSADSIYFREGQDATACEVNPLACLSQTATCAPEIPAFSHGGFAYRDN

in vivo = settings: C57BL/6J, mouse, serum, intraperitoneal, 10 mg/kg
CYP-450 enzymes = assay: Liver microsomes assay

RPE65 (Bos taurus, UniProt Q28175), sequence (Q28175 whole entry): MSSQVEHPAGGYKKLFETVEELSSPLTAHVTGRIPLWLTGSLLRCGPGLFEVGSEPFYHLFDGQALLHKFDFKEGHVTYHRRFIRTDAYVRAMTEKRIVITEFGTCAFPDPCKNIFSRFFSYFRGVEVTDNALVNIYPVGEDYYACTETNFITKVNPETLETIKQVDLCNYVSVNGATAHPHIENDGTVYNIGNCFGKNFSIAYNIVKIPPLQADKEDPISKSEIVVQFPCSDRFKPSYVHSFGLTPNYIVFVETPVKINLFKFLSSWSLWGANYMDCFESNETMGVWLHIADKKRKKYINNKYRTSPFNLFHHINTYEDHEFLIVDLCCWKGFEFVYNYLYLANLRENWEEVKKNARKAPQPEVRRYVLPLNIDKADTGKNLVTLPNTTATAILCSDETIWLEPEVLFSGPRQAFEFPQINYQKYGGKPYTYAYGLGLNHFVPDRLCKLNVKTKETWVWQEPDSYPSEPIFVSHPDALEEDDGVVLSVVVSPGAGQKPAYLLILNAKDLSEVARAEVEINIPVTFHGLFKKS

NC(CCO)c1cccc(OCC2CCCCC2)c1 (stereo not shown) [6a, 3-Amino-3-(3-(cyclohexylmethoxy)phenyl)propan-1-ol]
inhibition of RPE65 in vitro (RPE65 [1]): lack of inhibitory activity; also recorded: no inhibition

NC(CO)Cc1cccc(OCC2CCCCC2)c1 (stereo not shown) [6b, 2-Amino-3-(3-(cyclohexylmethoxy)phenyl)propan-1-ol]
inhibition of RPE65 in vitro (RPE65 [1]): no inhibition

NC(CO)Cc1ccc(OCC2CCCCC2)cc1 (stereo not shown) [6c, 2-Amino-3-(4-(cyclohexylmethoxy)phenyl)propan-1-ol]
inhibition of RPE65 in vitro (RPE65 [1]): lack of dose-response relationship

NCCc1cccc(OCC2CCCCC2)c1 [11b, 2-(3-(Cyclohexylmethoxy)phenyl)ethan-1-amine]
RPE65 inhibition in vivo (in words) (RPE65 [2]): did not display hallmarks of inhibited RPE65 activity
potency towards RPE65 relative to amine 11a (RPE65 [1]; ratio of IC50 values): 7.6 times

CC(CCN)c1cccc(OCC2CCCCC2)c1 (stereo not shown) [16b, 3-(3-(Cyclohexylmethoxy)phenyl)butan-1-amine]
RPE65 inhibition in vivo (in words) (RPE65 [2]): minor RPE65 inhibition
non-specific toxicity observation (RPE65 [2]; all animals, even 24 hours after treatment): impaired body movement
11cRAL level in eye (RPE65 [2]): 253.5 ± 9.0 pmol/eye
RE level in eye (RPE65 [2]): 85.6 ± 12.7 pmol/eye

CC(CN)Cc1cccc(OCC2CCCCC2)c1 (stereo not shown) [16c, (3-(Cyclohexylmethoxy)phenyl)-2-methylpropan-1-amine]
RPE65 inhibition in vivo (in words) (RPE65 [2]): minor RPE65 inhibition
11cRAL level in eye (RPE65 [2]): 370.5 ± 9.1 pmol/eye
RE level in eye (RPE65 [2]): 123.9 ± 36.4 pmol/eye

CNCCC(O)c1cccc(OCC2CCCCC2)c1 (stereo not shown) [16e, 1-(3-(Cyclohexylmethoxy)phenyl)-3-(methylamino)propan-1-ol]
11cRAL per eye as % of the dark adapted (DA) level (RPE65 [2]; 24 hours post treatment): 53%
RPE65 inhibition in vivo (in words) (RPE65 [2]): potent RPE65 inhibition
Concentration of 16e in mouse aorta homogenates (VAP-1; time 0): 100.32 ± 0.95 µM
Concentration of 16e in mouse aorta homogenates (VAP-1; time 1): 101.20 ± 0.89 µM
concentration at 24 h (in vivo): 0 nM
hepatic clearance relative to 3a (CYP-450 enzymes; Cint ratio): 5.5 times
rate of liver metabolism relative to 3a (CYP-450 enzymes; Vmax ratio): 1.7 times
demethylation to 3a in liver microsomes (CYP-450 enzymes; one-hour exposure, 200 μM): minor amount of demethylation

O=CC=Cc1cccc(OCC2CCCCC2)c1 [ACU-5201]
Concentration of deaminated product ACU-5201 in mouse aorta homogenates (VAP-1; formed from substrate 3a, time 0): 0.00 ± 0.00 µM
Concentration of deaminated product ACU-5201 in mouse aorta homogenates (VAP-1; formed from substrate 3a, time 1): 19.71 ± 0.29 µM
Concentration of deaminated product ACU-5201 in mouse aorta homogenates (VAP-1; formed from substrate 3a, time 4): 54.81 ± 6.38 µM
Concentration of deaminated product ACU-5201 in mouse aorta homogenates (VAP-1; formed from substrate 16e, time 1): 0.48 ± 0.68 µM
Concentration of deaminated product ACU-5201 in mouse aorta homogenates (VAP-1; formed from substrate 16e, time 4): 3.76 ± 0.29 µM
